From ChEMBL document CHEMBL3301361, “Experimental in vitro DMPK and physicochemical data on a set of publicly disclosed compounds”
Values belong to the molecule of their own block, whether it stands above or below them.

How the values were obtained:
[1] = physchem; details: octan-1-ol/water, pH 7.4, LogD7.4
[2] = in vitro; details: human

Compound: C[C@H]1CN(Cc2cc(Cl)ccc2OC(C)(C)C(=O)O)CCN1S(=O)(=O)c1ccccc1
- logD [1]: 0.54
- microsomal CLint ([2]; microsomes): < 3 µL/min/mg

Compound: CC1CCC(CC(=O)Nc2cccc3ncccc23)CC1 (stereo not given)
- logD [1]: 3.56
- microsomal CLint ([2]; liver microsomes): 38 µL/min/mg

Compound: COCCNCc1ccc(-c2cc(C(N)=O)c(NC(N)=O)s2)cc1
- logD [1]: 0.87
- microsomal CLint ([2]; liver microsomes): 3 µL/min/mg

Compound: NC1CCN(c2nccc(C(=O)NCC34CC5CC(CC(C5)C3)C4)c2Cl)CC1
- logD [1]: 1.19
- microsomal CLint ([2]; microsomes): 41 µL/min/mg

Compound: CN(C)CCCOc1ccc(-c2cc(C(N)=O)c(NC(N)=O)s2)cc1
- logD [1]: 0.64
- microsomal CLint ([2]; liver microsomes): 6 µL/min/mg

Compound: O=C(CC12CC3CC(CC(C3)C1)C2)Nc1c(Cl)ccc2nc(CN3CCN(CCO)CC3)ccc12
- logD [1]: 2.93
- microsomal CLint ([2]; liver microsomes): 79.5 µL/min/mg

Compound: C[C@H]1CN(Cc2cc(Cl)ccc2CC(=O)O)CCN1S(=O)(=O)Cc1ccccc1
- microsomal CLint ([2]; microsomes): < 3 µL/min/mg

Compound: CCN(CC)Cc1cc(Nc2ccnc3cc(Cl)ccc23)ccc1O [AMODIAQUINE]
- microsomal CLint ([2]; microsomes): > 150 µL/min/mg

Compound: CCN(C(=O)Cc1ccc(S(C)(=O)=O)cc1)C1CCN(CC[C@@H](c2cc(C)cc(C)c2)C2CCN(S(C)(=O)=O)CC2)CC1
- microsomal CLint ([2]; liver microsomes): > 150 µL/min/mg

Compound: Cc1c(Sc2ccc(Cl)cc2)c2cccc(Cl)c2n1CC(=O)O
- microsomal CLint ([2]; liver microsomes): < 3 µL/min/mg

Compound: N#Cc1cccc(C[C@@H](C(=O)O)N2CCC(CN3CCC(Oc4ccc(Cl)c(Cl)c4)CC3)CC2)c1
- microsomal CLint ([2]; liver microsomes): < 3 µL/min/mg

Compound: O=C(O)COc1ccc(Cl)cc1CN1CCCN(S(=O)(=O)c2ccccc2)CC1
- microsomal CLint ([2]; microsomes): < 3 µL/min/mg

Compound: CN(C(=O)Cc1ccc(S(N)(=O)=O)cc1)C1CCN(CCC(c2ccccc2)c2ccccc2)CC1
- microsomal CLint ([2]; liver microsomes): 12 µL/min/mg

Compound: CCc1nc2c(N)nc3ccccc3c2n1CC(C)(C)O
- microsomal CLint ([2]; liver microsomes): < 3 µL/min/mg

Compound: O=C(O)COc1ccc(C(F)(F)F)cc1-c1ccccc1-c1ccccc1
- microsomal CLint ([2]; microsomes): < 3 µL/min/mg

Compound: COc1ccc(N(C(=O)c2occc2Cl)C(C(=O)NC[C@@H](C)O)c2ccccc2F)c(OC)c1 (stereo not given in full)
- microsomal CLint ([2]; microsomes): 145 µL/min/mg

Compound: Cc1c(Oc2ccc(Cl)cc2)c2cc(F)ccc2n1CC(=O)O
- microsomal CLint ([2]; microsomes): < 3 µL/min/mg

Compound: CC[C@H](CO)Nc1nc(SCc2cccc(F)c2F)nc2nc(NC(C)C)sc12
- microsomal CLint ([2]; liver microsomes): 42 µL/min/mg

Results, then the molecule that gave them:

- logD [1]: 1.8
- microsomal CLint ([2]; liver microsomes): 3 µL/min/mg
Compound: Nc1nnc(-c2ccccc2)s1

- logD [1]: 0.52
- microsomal CLint ([2]; liver microsomes): < 3 µL/min/mg
Compound: Cc1ccc2c(c1)c(-c1ccnc3c(C#N)cccc13)c(C)n2CC(=O)O

- logD [1]: 1.94
- microsomal CLint ([2]; microsomes): < 3 µL/min/mg
Compound: Nc1c(C(=O)c2cccc(OC[C@H](O)CO)c2)cnn1-c1ccc(F)cc1

- logD [1]: 1.74
- microsomal CLint ([2]; liver microsomes): 35 µL/min/mg
Compound: O=c1[nH]c2c(O)ccc([C@@H](O)CNCCCSCCNCCc3cccc(Cl)c3Cl)c2s1

- logD [1]: 2.6
- microsomal CLint ([2]; liver microsomes): 54 µL/min/mg
Compound: CCCN1CCC(Oc2nccc(Nc3cc(NC(=O)c4cccc(N5CCOCC5)c4)ccc3C)n2)CC1

- logD [1]: 0.08
- microsomal CLint ([2]; liver microsomes): < 3 µL/min/mg
Compound: CC(C)C[C@H](NC(=O)N1CCOCC1)C(=O)NCC#N

- logD [1]: 2.75
- microsomal CLint ([2]; liver microsomes): < 3 µL/min/mg
Compound: C[C@H](CO)Nc1nc(SCc2ccccc2)nc2[nH]c(=O)[nH]c12

- logD [1]: 3.56
- microsomal CLint ([2]; microsomes): < 3 µL/min/mg
Compound: Cc1c(Sc2ccc(Cl)cc2)c2cc(Cl)ccc2n1C(C)C(=O)O (stereo not given)

- logD [1]: 2.71
- microsomal CLint ([2]; liver microsomes): 30 µL/min/mg
Compound: O=C(CCc1ccccc1O)Nc1ccccc1

- logD [1]: 2.75
- microsomal CLint ([2]; liver microsomes): 15 µL/min/mg
Compound: Nc1nc(Nc2ccc(F)c(Cl)c2)c2nc[nH]c2n1

- logD [1]: 0.88
- microsomal CLint ([2]; microsomes): < 3 µL/min/mg
Compound: Nc1ccc(S(=O)(=O)c2ccc(N)cc2)cc1 [DAPSONE]

- logD [1]: 3.28
- microsomal CLint ([2]; liver microsomes): 8 µL/min/mg
Compound: O=C(NC[C@@H](O)CN1CCC(Oc2ccc(Cl)c(Cl)c2)CC1)c1cnnc2ccccc12

- microsomal CLint ([2]; microsomes): 4 µL/min/mg
Compound: O=C(O)c1cccnc1N1CCC(CN2CCC(Oc3ccc(Cl)c(Cl)c3)CC2)CC1

- microsomal CLint ([2]; liver microsomes): 11 µL/min/mg
Compound: N=C(N)c1cc2c(OCc3ccccc3)cccc2s1

- microsomal CLint ([2]; liver microsomes): < 3 µL/min/mg
Compound: CCCCc1nc2c(N)nc3ccccc3c2n1CC(C)(C)O

- microsomal CLint ([2]; liver microsomes): 37.1 µL/min/mg
Compound: Nc1nc(-c2ccccn2)nc(N)c1Cc1ccc(Cl)cc1Cl

- microsomal CLint ([2]; liver microsomes): > 150 µL/min/mg
Compound: CCN(C(=O)Cc1ccc(S(C)(=O)=O)cc1)C1CCN(CCC(c2ccccc2)C2CCN(Cc3ccccc3)CC2)CC1 (stereo not given)

- microsomal CLint ([2]; liver microsomes): 31 µL/min/mg
Compound: NC(=O)c1sc(-c2ccc(Cl)cc2)cc1N

- microsomal CLint ([2]; liver microsomes): < 3 µL/min/mg
Compound: COc1ccc(Sc2c(C)n(CC(=O)O)c3ccc(C)cc23)cc1

- microsomal CLint ([2]; liver microsomes): < 3 µL/min/mg
Compound: Cc1ccc(NC(=O)c2ccno2)cc1-n1cnc2ccc(N3CCN(C)CC3)cc2c1=O

- microsomal CLint ([2]; liver microsomes): < 3 µL/min/mg
Compound: Cc1c(Sc2ccc(Cl)cc2)c2c(-c3ccccc3)cccc2n1CC(=O)O

- microsomal CLint ([2]; microsomes): < 3 µL/min/mg
Compound: CCS(=O)(=O)Nc1cccc2c1c(Oc1ccc(Cl)cc1)c(C)n2CC(=O)O

- microsomal CLint ([2]; liver microsomes): 45 µL/min/mg
Compound: NC(=O)Nc1cc(-c2ccsc2)sc1C(N)=O

- microsomal CLint ([2]; liver microsomes): < 3 µL/min/mg
Compound: Cc1c(CC(=O)O)c2cc(F)ccc2n1Cc1nc2ccccc2s1
